Results published in patent US8148388B2, “2,4 (4,6) pyrimidine derivatives” (Janssen Pharmaceutica, N.V., priority 2004, dated 2012).

Assays:
Format in all cases: biochemical
EGFR (h) = EGFR (h) (Homo sapiens, UniProt P00533); assay: EGFR human kinase assay (glass-fiber filter); conditions: test concentration of 10^−6M; for inhibition at 1 µM: read-out: C4 score (inhibition of EGFR human)
Description: (§1) In the glass-fiber filter technology the activity of the kinase of interest is measured using an appropriate substrate that is incubated with the aforementioned kinase protein in the presence of (^33P) radiolabeled ATP. (^33P) Phosphorylation of the substrate is subsequently measured as radioactivity bound on a glass fiber-filter.
(§2) All kinases are pre-diluted to a 10× working concentration prior to addition into the assay. The composition of the dilution buffer for each kinase is detailed below.
(§3) In a final reaction volume of 25 μl, EGFR (h) (5-10 mU) is incubated with 8 mM MOPS pH 7.0, 0.2 mM EDTA, 10 mM MnCl2, 0.1 mg/ml poly(Glu, Tyr) 4:1, 10 mM MgAcetate and [γ-^33P-ATP] (specific activity approx. 500 cpm/pmol, concentration as required). The reaction is initiated by the addition of the MgATP mix. After incubation for 40 minutes at room temperature, the reaction is stopped by the addition of 5 μl of a 3% phosphoric acid solution. 10 μl of the reaction is then spotted onto a Filtermat A and washed three times for 5 minutes in 75 mM phosphoric acid and once in methanol prior to drying and scintillation counting.

Abl (h) = Abl (h) (Homo sapiens, UniProt P00519); assay: Abl human kinase assay (glass-fiber filter); conditions: test concentration of 10^−6M; for inhibition at 1 µM: read-out: C1 score (inhibition of Abl human)
Description: as §1, §2
as §3, with “(specific” for “In a final reaction volume of 25 μl, EGFR (h) (5-10 mU) is incubated with 8 mM MOPS pH 7.0, 0.2 mM EDTA, 10 mM MnCl2, 0.1 mg/ml poly(Glu, Tyr) 4:1, 10 mM MgAcetate and [γ-^33P-ATP] (specific”, “P30 filtermat” for “Filtermat A”

GSK3B (h) = GSK3B (h) (Homo sapiens, UniProt P49841); assay: GSK3β human kinase assay (glass-fiber filter); conditions: test concentration of 10^−6M; for inhibition at 1 µM: read-out: C8 score (inhibition of GSK3β human)
Description: (§4) The in vitro inhibition of a panel of kinases was assessed using either the glass-fiber filter technology as described by Davies, S. P. et al., Biochem J. (2000), 351; p. 95-105.
as §1, §2
as §3, with “GSK3B” for “EGFR”, “20 μM […](p)EDEEE (phospho GS2 peptide),” for “10 mM MnCl2, 0.1 mg/ml poly(Glu, Tyr) 4:1,”, “P30 filtermat” for “Filtermat A”, “50” for “75”

Flt3 (h) = Flt3 (h) (Homo sapiens, UniProt P36888); assay: Flt3 human kinase assay (glass-fiber filter); conditions: test concentration of 10^−6M; for inhibition at 1 µM: read-out: C6 score (inhibition of Flt3 human)
Description: as §4, §1, §2
as §3, with “Flt3” for “EGFR”, “50 μM […],” for “10 mM MnCl2, 0.1 mg/ml poly(Glu, Tyr) 4:1,”, “P30 filtermat” for “Filtermat A”

Fms (h) = Fms (h) (Homo sapiens, UniProt P07333); assay: Fms human kinase assay (glass-fiber filter); conditions: test concentration of 10^−6M; read-out: C7 score (inhibition of Fms human)
Description: as §4, §1, §2
as §3, with “Fms” for “EGFR”, “250 μM […],” for “10 mM MnCl2, 0.1 mg/ml poly(Glu, Tyr) 4:1,”, “P30 filtermat” for “Filtermat A”

Yes (h) = Yes (h) (Homo sapiens, UniProt P07947); assay: Yes human kinase assay (glass-fiber filter); conditions: test concentration of 10^−6M; for inhibition at 1 µM: read-out: C11 score (inhibition of Yes human)
Description: as §1, §2
as §3, with “Yes” for “EGFR”, “EDTA,” for “EDTA, 10 mM MnCl2,”, “[…],” for “cpm/pmol,”

Lyn (h) = Lyn (h) (Homo sapiens, UniProt P07948); assay: Lyn human kinase assay (glass-fiber filter); conditions: test concentration of 10^−6M; for inhibition at 1 µM: read-out: C10 score (inhibition of Lyn human)
Description: as §1, §2
In a final reaction volume of […] (h) (5-10 mU) is incubated with 50 mM Tris pH 7.5, 0.1 mM EGTA, 0.1 mM Na3VO4, 0.1% O-mercaptoethanol, 0.1 mg/ml poly(Glu, Tyr) 4:1, 10 mM MgAcetate and [γ-^33P-ATP] (specific activity approx. 500 cpm/pmol, concentration as required). The reaction is initiated by the addition of the MgATP mix. After incubation for 40 minutes at room temperature, the reaction is stopped by the addition of 5 μl of a 3% phosphoric acid solution. 10 μl of the reaction is then spotted onto a Filtennat A and washed three times for 5 minutes in 75 mM phosphoric acid and once in methanol prior to drying and scintillation counting.

Lck (h) = Lck (h) (Homo sapiens, UniProt P06239); assay: Lck human kinase assay (glass-fiber filter); conditions: test concentration of 10^−6M; for inhibition at 1 µM: read-out: C9 score (inhibition of Lck human)
Description: (§5) The in vitro inhibition of a panel of kinases was assessed using either the glass-fiber filter technology as described by Davies, S. P. et al., Biochem J. […] In the glass-fiber filter technology the activity of the kinase of interest is measured using an appropriate substrate that is incubated with the aforementioned kinase protein in the presence of (^33P) radiolabeled ATP. (^33P) Phosphorylation of the substrate is subsequently measured as radioactivity bound on a glass fiber-filter. All kinases are pre-diluted to a 10× working concentration prior to addition into the assay. The composition of the dilution buffer for each kinase is detailed below. [table] […] The reaction is initiated by the addition of the MgATP mix. […] 10 μl of the reaction is then spotted onto a P30 filtermat and washed three times for 5 minutes in 75 mM phosphoric acid and once in methanol prior to drying and scintillation counting.

Fes (h) = Fes (h) (Homo sapiens, UniProt P07332); assay: Fes human kinase assay (glass-fiber filter); conditions: test concentration of 10^−6M; for inhibition at 1 µM: read-out: C4 score (inhibition of Fes human)
Description: as §1, §2
as §3, with “Fes” for “EGFR”, “EDTA,” for “EDTA, 10 mM MnCl2,”

cSRC (h) = cSRC (h) (Homo sapiens, UniProt P12931); assay: cSRC human kinase assay (glass-fiber filter); conditions: test concentration of 10^−6M; for inhibition at 1 µM: read-out: C3 score (inhibition of cSRC human)
Description: as §5, with “below.” for “below. [table]”

EGFR (h), sequence (P00533 25-1210): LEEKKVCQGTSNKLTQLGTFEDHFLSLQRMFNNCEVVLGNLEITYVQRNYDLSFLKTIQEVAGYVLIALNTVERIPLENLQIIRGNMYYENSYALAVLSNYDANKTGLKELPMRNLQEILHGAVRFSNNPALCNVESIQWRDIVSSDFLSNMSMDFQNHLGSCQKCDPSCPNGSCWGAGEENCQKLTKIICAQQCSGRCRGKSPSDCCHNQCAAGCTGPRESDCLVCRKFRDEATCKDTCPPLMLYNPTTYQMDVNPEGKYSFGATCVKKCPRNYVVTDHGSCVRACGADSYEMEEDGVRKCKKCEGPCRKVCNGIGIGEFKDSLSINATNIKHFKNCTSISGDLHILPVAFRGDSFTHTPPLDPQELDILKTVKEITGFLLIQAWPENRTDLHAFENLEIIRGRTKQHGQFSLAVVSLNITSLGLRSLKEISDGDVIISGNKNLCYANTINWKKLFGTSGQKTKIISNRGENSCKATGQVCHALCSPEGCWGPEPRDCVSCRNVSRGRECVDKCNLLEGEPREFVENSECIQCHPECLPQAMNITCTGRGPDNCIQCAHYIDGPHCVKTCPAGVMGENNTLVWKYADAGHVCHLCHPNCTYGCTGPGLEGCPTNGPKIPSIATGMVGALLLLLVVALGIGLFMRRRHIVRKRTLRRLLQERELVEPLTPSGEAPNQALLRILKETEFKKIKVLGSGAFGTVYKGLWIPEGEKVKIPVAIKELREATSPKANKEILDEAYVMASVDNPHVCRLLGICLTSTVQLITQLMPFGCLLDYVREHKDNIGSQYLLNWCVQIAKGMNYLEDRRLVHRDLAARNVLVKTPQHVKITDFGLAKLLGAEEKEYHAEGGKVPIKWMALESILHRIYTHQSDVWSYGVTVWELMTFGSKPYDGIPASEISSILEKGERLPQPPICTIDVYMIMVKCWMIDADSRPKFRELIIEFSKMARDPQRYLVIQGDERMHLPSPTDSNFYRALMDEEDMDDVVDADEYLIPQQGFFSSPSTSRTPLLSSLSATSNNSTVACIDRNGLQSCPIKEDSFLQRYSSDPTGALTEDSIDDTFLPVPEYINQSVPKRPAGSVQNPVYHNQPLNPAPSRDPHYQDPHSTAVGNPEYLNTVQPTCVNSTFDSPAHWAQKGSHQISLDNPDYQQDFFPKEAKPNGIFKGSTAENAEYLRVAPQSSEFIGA
Fes (h), sequence (P07332 whole entry): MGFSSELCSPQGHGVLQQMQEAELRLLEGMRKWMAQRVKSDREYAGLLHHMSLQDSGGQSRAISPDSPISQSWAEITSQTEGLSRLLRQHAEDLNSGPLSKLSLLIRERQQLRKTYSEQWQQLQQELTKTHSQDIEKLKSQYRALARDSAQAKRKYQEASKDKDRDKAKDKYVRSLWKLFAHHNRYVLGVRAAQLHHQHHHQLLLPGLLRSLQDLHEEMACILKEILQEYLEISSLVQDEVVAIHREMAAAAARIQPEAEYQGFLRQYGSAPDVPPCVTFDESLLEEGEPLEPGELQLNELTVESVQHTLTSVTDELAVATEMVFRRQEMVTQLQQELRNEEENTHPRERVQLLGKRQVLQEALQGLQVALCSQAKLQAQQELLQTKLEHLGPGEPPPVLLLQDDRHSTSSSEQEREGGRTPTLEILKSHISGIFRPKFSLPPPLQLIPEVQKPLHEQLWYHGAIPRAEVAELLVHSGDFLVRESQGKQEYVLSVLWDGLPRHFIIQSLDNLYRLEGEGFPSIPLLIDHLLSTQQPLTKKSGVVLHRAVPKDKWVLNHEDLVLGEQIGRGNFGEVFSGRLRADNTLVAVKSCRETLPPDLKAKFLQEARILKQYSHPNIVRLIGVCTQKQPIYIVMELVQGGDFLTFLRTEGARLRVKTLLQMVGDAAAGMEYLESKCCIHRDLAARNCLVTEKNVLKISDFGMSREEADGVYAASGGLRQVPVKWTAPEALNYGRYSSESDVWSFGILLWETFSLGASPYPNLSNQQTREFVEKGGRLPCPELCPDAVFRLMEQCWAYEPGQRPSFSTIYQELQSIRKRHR
Yes (h), sequence (P07947 whole entry): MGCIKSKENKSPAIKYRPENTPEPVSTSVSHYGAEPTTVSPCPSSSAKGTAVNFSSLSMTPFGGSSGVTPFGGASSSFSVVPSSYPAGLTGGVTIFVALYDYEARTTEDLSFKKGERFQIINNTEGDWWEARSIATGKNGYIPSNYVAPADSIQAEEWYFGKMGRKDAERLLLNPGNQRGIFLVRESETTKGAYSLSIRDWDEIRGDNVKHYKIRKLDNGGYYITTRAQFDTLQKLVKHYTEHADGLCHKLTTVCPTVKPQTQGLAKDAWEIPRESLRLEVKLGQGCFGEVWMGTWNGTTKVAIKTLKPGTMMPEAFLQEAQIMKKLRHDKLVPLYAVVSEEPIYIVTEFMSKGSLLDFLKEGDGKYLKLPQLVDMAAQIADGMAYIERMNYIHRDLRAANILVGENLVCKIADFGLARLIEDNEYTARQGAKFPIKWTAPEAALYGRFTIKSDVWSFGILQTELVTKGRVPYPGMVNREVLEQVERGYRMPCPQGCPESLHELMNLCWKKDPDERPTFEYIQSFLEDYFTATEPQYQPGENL
Flt3 (h), sequence (P36888 27-993): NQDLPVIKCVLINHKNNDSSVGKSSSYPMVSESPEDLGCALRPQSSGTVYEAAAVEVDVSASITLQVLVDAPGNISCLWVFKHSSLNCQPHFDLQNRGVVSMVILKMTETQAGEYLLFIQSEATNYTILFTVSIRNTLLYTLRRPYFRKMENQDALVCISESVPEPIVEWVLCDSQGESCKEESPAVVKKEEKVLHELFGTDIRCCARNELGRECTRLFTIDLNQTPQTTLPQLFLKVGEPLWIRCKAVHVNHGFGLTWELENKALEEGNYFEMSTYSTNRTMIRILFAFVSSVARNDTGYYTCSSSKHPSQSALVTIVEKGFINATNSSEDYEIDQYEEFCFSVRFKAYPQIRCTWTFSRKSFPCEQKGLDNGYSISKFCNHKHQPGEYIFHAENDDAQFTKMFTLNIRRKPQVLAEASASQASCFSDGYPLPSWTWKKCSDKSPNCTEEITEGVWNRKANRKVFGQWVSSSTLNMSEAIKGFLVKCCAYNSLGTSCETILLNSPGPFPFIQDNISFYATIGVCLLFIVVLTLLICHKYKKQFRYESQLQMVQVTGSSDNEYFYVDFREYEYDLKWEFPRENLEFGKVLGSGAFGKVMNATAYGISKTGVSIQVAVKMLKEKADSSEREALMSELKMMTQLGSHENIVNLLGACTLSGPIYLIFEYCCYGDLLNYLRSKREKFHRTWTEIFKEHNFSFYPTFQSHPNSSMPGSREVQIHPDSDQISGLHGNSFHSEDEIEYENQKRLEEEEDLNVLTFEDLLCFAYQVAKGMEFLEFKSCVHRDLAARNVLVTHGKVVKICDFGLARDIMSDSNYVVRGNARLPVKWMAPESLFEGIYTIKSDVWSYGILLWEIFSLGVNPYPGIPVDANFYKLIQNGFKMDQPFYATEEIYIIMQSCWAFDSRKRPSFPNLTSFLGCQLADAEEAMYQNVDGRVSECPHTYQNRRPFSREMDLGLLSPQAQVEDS
cSRC (h), sequence (P12931 whole entry): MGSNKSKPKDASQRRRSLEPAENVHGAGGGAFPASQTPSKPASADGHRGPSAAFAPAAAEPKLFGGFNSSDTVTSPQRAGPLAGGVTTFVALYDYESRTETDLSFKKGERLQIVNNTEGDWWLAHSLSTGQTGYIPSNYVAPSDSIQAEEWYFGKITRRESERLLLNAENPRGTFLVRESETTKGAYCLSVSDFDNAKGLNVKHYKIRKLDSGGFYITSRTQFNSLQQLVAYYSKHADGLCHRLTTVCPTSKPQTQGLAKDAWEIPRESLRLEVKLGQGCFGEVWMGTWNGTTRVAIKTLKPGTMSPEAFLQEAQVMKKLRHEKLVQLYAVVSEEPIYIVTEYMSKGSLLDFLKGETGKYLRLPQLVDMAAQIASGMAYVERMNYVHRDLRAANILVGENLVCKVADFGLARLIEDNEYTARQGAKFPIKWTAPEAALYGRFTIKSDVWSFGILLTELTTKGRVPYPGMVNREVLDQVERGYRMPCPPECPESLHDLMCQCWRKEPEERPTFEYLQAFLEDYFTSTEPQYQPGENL
Lyn (h), sequence (P07948 whole entry): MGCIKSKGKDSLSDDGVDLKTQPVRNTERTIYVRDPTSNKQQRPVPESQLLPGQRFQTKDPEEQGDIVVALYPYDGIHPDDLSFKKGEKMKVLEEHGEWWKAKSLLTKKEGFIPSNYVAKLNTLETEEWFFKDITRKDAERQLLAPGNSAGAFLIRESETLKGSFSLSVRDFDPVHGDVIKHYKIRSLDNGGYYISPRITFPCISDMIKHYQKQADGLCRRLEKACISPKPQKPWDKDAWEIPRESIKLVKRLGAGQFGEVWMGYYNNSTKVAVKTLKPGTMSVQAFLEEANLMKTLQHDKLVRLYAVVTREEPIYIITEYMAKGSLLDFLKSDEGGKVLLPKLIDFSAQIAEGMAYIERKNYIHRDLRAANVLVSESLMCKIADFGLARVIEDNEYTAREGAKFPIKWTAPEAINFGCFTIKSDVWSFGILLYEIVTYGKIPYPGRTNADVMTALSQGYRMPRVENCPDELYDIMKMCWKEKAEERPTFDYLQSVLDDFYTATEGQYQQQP
GSK3B (h), sequence (P49841 whole entry): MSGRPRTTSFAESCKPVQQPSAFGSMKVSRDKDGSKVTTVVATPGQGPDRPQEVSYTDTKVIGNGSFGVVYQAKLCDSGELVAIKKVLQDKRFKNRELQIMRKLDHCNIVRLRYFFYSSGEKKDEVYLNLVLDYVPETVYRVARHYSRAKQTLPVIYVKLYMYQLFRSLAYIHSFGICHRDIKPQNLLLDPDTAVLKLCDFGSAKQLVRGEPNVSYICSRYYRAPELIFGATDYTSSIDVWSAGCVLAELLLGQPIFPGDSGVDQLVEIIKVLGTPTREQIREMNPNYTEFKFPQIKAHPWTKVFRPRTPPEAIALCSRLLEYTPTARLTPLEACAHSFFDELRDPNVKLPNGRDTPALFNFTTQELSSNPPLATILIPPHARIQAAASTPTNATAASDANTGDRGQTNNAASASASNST

SMILES | inhibition at 1 µM (EGFR (h)) | inhibition at 1 µM (Abl (h)) | inhibition at 1 µM (GSK3B (h)) | inhibition at 1 µM (Flt3 (h)) | inhibition at 1 µM (Fms (h)) | inhibition at 1 µM (Yes (h)) | inhibition at 1 µM (Lyn (h)) | inhibition at 1 µM (Lck (h)) | inhibition at 1 µM (Fes (h)) | C4 score (inhibition of EGFR human) (EGFR (h)) | C8 score (inhibition of GSK3β human) (GSK3B (h)) | C6 score (inhibition of Flt3 human) (Flt3 (h)) | C11 score (inhibition of Yes human) (Yes (h)) | C10 score (inhibition of Lyn human) (Lyn (h)) | C3 score (inhibition of cSRC human) (cSRC (h)) | C9 score (inhibition of Lck human) (Lck (h)) | C4 score (inhibition of Fes human) (Fes (h)) | inhibition at 1 µM (cSRC (h)) | C1 score (inhibition of Abl human) (Abl (h))
N#Cc1cnc2nc1Nc1cccc(c1)OCC(=O)NCCOc1cccc(c1)N2 [Compound 27, 14,20-dioxa-2,4,8,17,27-pentaazatetracyclo[19.3.1.1~3,7~.1~9,13~]heptacosa-1(25),3,5,7(27),9,11,13(26),21,23-nonaene-6-carbonitrile, 16-oxo-] | 10 to 30% | 10 to 30% | 30 to 60% | 60 to 80% | 30 to 60% | 10 to 30% | 10 to 30% | 30 to 60% | 10 to 30% | – | – | – | – | – | – | – | – | – | –
COc1ccc2cc1OCCCNC(=O)[C@@H]1CCCN1Cc1cc(F)c(Cl)cc1Nc1nc(ncc1C#N)N2 [Compound 6, 21,17-metheno-15,11-nitrilo-1H,16H-pyrrolo[2,1-s][13,1,5,7,17,20]benzoxapentaazacyclotricosine-12-carbonitrile, 8-chloro-7-fluoro-2,3,5,10,23,24,25,26,27,27a-decahydro-20-methoxy-27-oxo-, (27aS)-] | – | – | – | – | – | – | – | – | – | 1 (Score 1=10-30% inhibition) | 2 (Score 2=30-60% inhibition) | 2 (Score 2=30-60% inhibition) | 2 (Score 2=30-60% inhibition) | 1 (Score 1=10-30% inhibition) | 1 (Score 1=10-30% inhibition) | 2 (Score 2=30-60% inhibition) | 1 (Score 1=10-30% inhibition) | – | –
N#Cc1cnc2nc1Nc1cccc(c1)OCCCCOc1cccc(c1)N2 [Compound 2, 14,19-dioxa-2,4,8,26-tetraazatetracyclo[18.3.1.1˜3,7˜.1˜9,13˜]hexacosa-1(24),3,5,7(26),9,11,13(25),20,22-nonaene-6-carbonitrile] | – | 10 to 30% | 60 to 80% | > 80% | 30 to 60% | 30 to 60% | 10 to 30% | 30 to 60% | 10 to 30% | – | – | – | – | – | – | – | – | 30 to 60% | –
COc1ccc2cc1OCCNC(=O)[C@@H]1CCCN1Cc1cc(F)c(Cl)cc1Nc1nc(ncc1C#N)N2 [Compound 31, 21,17-metheno-15,11-nitrilo-16H-pyrrolo[2,1-r][13,1,5,7,16,19]benzoxapentaazacyclodocosine-12-carbonitrile, 8-chloro-7-fluoro-1,2,3,5,10,23,24,25,26,26a-decahydro-20-methoxy-26-oxo-, (26aS)-] | – | – | – | – | – | – | – | – | – | 2 (Score 2=30-60% inhibition) | 1 (Score 1=10-30% inhibition) | 2 (Score 2=30-60% inhibition) | 4 (Score 4=>80% inhibition) | 4 (Score 4=>80% inhibition) | 2 (Score 2=30-60% inhibition) | 3 (Score 3=60-80% inhibition) | – | – | 2 (Score 2=30-60% inhibition)
O=C1NCCCCOc2cccc(c2)Nc2ccnc(n2)Nc2cccc1c2 [Compound 19, 14-oxa-2,4,8,19,27-pentaazatetracyclo[19.3.1.1~3,7~.1~9,13~]heptacosa-1(25),3,5,7(27),9,11,13(26),21,23-nonaen-20-one] | 10 to 30% | 10 to 30% | 10 to 30% | 30 to 60% | 10 to 30% | 30 to 60% | 10 to 30% | 30 to 60% | – | – | – | – | – | – | – | – | – | 10 to 30% | –
